Data: ChEMBL document CHEMBL1671859, “bla(IMP-4) in different genetic contexts in Enterobacteriaceae isolates from Australia” (2008)

What was measured:
Format in all cases: functional
[1] = system: Klebsiella pneumoniae; experiment: Antibacterial activity against Klebsiella pneumoniae isolate Kp1945 harboring IncL/M plasmid, blaIMP-4-qacG2-aacA4-catB3 and dfrA12-orfF-aadA2 arrays by Etest method in presence of clavulanic acid
[2] = system: Klebsiella pneumoniae; experiment: Antibacterial activity against Klebsiella pneumoniae isolate Kp38009 harboring IncL/M plasmid and blaIMP-4-qacG2-aacA4-catB3 array by Etest method in presence of clavulanic acid
[3] = system: Morganella morganii; experiment: Antibacterial activity against Morganella morganii isolate Mm1614 harboring IncL/M plasmid and blaIMP-4-qacG2-aacA4-catB3 array by Etest method in presence of clavulanic acid
[4] = system: Citrobacter amalonaticus; experiment: Antibacterial activity against Citrobacter amalonaticus Ca3927 transconjugant harboring IncL/M plasmid and blaIMP-4-qacG2-aacA4-catB3 array by Etest method in presence of clavulanic acid
[5] = system: Klebsiella pneumoniae; experiment: Antibacterial activity against Klebsiella pneumoniae Kp7564 transconjugant harboring IncL/M plasmid and blaIMP-4-qacG2-aacA4-catB3 array by Etest method in presence of clavulanic acid
[6] = system: Citrobacter youngae; experiment: Antibacterial activity against Citrobacter youngae isolate CyB38 harboring blaIMP-4-qacG2-aacA4-catB3 array by Etest method in presence of clavulanic acid
[7] = system: Klebsiella oxytoca; experiment: Antibacterial activity against Klebsiella oxytoca Ko238 transconjugant harboring IncA/C plasmid and blaIMP-4-qacG2-aacA4-catB3 array by Etest method in presence of clavulanic acid
[8] = system: Citrobacter youngae; experiment: Antibacterial activity against Citrobacter youngae CyB38 transconjugant harboring blaIMP-4-qacG2-aacA4-catB3 array by Etest method in presence of clavulanic acid
[9] = system: Citrobacter amalonaticus; experiment: Antibacterial activity against Citrobacter amalonaticus isolate Ca38009 harboring IncL/M plasmid and blaIMP-4-qacG2-aacA4-catB3 array by Etest method in presence of clavulanic acid
[10] = system: Escherichia coli; experiment: Antibacterial activity against Escherichia coli isolate Ec9381 harboring IncL/M plasmid and blaIMP-4-qacG2-aacA4-catB3 array by Etest method in presence of clavulanic acid
[11] = system: Enterobacter cloacae; experiment: Antibacterial activity against Enterobacter cloacae isolate El3799 harboring IncL/M plasmid and blaIMP-4-qacG2-aacA4-catB3 array by Etest method in presence of clavulanic acid
[12] = system: Citrobacter amalonaticus; experiment: Antibacterial activity against Citrobacter amalonaticus Ca38009 transconjugant harboring IncL/M plasmid and blaIMP-4-qacG2-aacA4-catB3 array by Etest method in presence of clavulanic acid
[13] = system: Serratia marcescens; experiment: Antibacterial activity against Serratia marcescens isolate Sm201 harboring IncA/C plasmid and blaIMP-4-qacG2-aacA4-catB3 array by Etest method in presence of clavulanic acid

Measured: MIC

CC1(C)S[C@@H]2[C@H](NC(=O)[C@H](N)c3ccc(O)cc3)C(=O)N2[C@H]1C(=O)O [AMOXICILLIN]
> 16 µg/mL: all assays above
